Tests used:
[1] = target: human EP4 receptor (Homo sapiens, UniProt P35408); experiment: Assay for EP4 antagonistic effect (cAMP, PGE2-stimulated CHO stable cell line)
Protocol: After trypsinization, cells were resuspended in a buffer (1×HBSS, 0.1% BSA, 20 mM HEPES, and 500 μM IBMX) and 8000 cells were seeded per well in 384-well plates in a seeding volume of 15 μL. A working solution the compound with a 8× concentration was prepared with an experimental buffer, and then 2.5 μL of the working solution of the compound with 8× concentration was added to the 384-well plate, respectively, and incubated at 37° C. for 30 min. An agonist PGE2 working solution with 8× concentration of (4 nM) was prepared with the experimental buffer and 2.5 μL per well was added to the 384-well plate (the final PGE2 concentration was 0.5 nM) and incubated at 37° C. for 30 min. After the reaction was completed, the amount of cAMP in the cells was quantified according to the method in the instructions of the cAMP test kit (Perkin Elmer, Cat #TRF0263). The antagonistic effects (IC50 value) were calculated for the test compounds.

[2] = Canine pharmacokinetic assay; format: in vivo, male Beagle dogs
Protocol: In a mouse pharmacokinetic assay, male ICR mice (20 g to 25 g) were selected and fasted overnight. Three mice were selected and intragastrically administered with 5 mg/kg of the corresponding compound. The blood of the mice was collected before the administration and at 15 min, 30 min, 1 h, 2 h, 4 h, 8 h, 24 h after the administration. Another 3 mice were intravenously administered with 1 mg/kg of the corresponding compound, and the blood thereof was collected before the administration and at 15 min, 30 min, 1 h, 2 h, 4 h, 8 h, 24 h after the administration. The blood samples were centrifuged at 6800 g at 2° C. to 8° C. for 6 minutes, and plasma was collected and stored at −80° C. The plasma was taken at respective time point, mixed with 3-5 times the amount of acetonitrile containing internal standard, vortexed for 1 minute, centrifuged at 4° C. for 10 minutes at 13000 rpm, supernatant was added 3 times the amount of water, and the appropriate mixture was taken for LC-MS/MS analysis. The primary pharmacokinetic parameters were analyzed with a WinNonlin 7.0 software, with non-compartmental model.
In a canine pharmacokinetic assay, male Beagle dogs (8 kg to 10 Kg) were selected and fasted overnight. Three Beagle dogs were taken and intragastrically administered with 3 mg/kg of the corresponding compound. Another 3 Beagle dogs were intravenously administered with 1 mg/kg of the corresponding compound. The following operations were the same as the mouse pharmacokinetic assay.

[3] = test system: CT-26 murine colon cancer tumor model; experiment: Anti-tumor effect in CT-26 murine colon cancer tumor model in combination with radiation therapy; format: in vivo, mouse; conditions: 150 mg/kg intragastric once daily in combination with radiotherapy (3Gry, once on day 1); day 23; tumor weight
Protocol: In this assay, the anti-tumor effects of the control compound and the compounds prepared in Examples 1 to 43, in combination with radiation therapy, were tested in a CT-26 murine colon cancer tumor model.
After one week of adaptive feeding of mice, CT-26 cells in a log phase were resuspended in PBS, 5×10^5 CT-26 cells were inoculated subcutaneously at the right flank at 100 μL per mouse, and tumor growth was observed regularly. When the tumor grew to an average volume of 60 to 80 mm^3, the mice carrying the tumor were randomly divided into 5 groups based on the tumor volume size, each group containing 10 mice of 10. These group were a group of Control compound (150 mg/kg) in combination with radiotherapy (3Gry), a group of Compound I-2 (150 mg/kg) in combination with radiotherapy, a group of Compound I-5 (150 mg/kg) in combination with radiotherapy, a group of radiotherapy (3Gry) alone, and a group of vehicle control. The mice were intragastrically administered with the corresponding compound once daily, for 23 days in total; radiation therapy was performed for one-time on the first day of the administration. Tumor volumes and mouse body weights were measured twice a week, and tumor weights were weighed at the end of the experiment. Efficacy evaluations were performed based on relative tumor inhibition (TGI), safety evaluations were performed based on changes in animal body weight and death. Tumor volume and relative tumor inhibition were calculated as follows:
Tumor volume (TV)=½×a×b^2, where a and b are the length and width of the tumor measurement, respectively.
Relative tumor inhibition rate TGI (%)=(TWc−TWt/TWc)×100%, where TWc is the mean tumor weight of the vehicle control group and TW is the mean tumor weight of the treatment group.

[4] = target: T1, recombinant human EP4 receptor membrane protein (Homo sapiens, UniProt P35408); experiment: Radioligand binding assay for EP4 receptor ([3H]-PGE2); conditions: [3H]-PGE2 1.5 nM; membrane protein 20 μg/well
T1 construct: expressed in transfected cells; host or cells: membranes of 293 cells overexpressing human EP4 receptor
T1 sequence (P35408 whole entry): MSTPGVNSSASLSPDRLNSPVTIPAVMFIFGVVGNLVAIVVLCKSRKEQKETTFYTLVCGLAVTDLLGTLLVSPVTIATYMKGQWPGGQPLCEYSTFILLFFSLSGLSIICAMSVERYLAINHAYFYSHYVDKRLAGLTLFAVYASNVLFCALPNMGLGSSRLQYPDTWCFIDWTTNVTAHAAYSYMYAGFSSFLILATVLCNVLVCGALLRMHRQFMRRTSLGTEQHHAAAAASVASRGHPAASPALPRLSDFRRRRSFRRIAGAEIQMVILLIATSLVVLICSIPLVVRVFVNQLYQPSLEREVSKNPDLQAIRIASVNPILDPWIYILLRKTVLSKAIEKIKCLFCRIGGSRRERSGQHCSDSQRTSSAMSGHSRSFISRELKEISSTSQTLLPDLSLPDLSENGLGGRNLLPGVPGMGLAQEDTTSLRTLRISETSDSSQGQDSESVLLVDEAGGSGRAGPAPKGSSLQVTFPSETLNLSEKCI
Protocol: The compounds to be tested and PGE2 were formulated as 10 mM stocks in a DMSO solvent, and then 8 concentration points of 4× working solution were serially diluted using a buffer (50 mM HBSS, 0.1% BSA, 500 mM NaCl). […] Unifilter-96 GF/C filter plate (Perkin Elmer) was soaked with 0.5% BSA, 50 μL per well, for at least 30 min at room temperature. After binding was complete, the reaction mixture was harvested through a GF/C plate using a Perkin Elmer Filtermate Harvester, followed by washing the filter plate and drying the filter plate for 1 hour at 50° C. After drying, the bottom of the filter plate wells was sealed using a Perkin Elmer Unifilter-96 sealing tape, and 50 μL of MicroScint™-20 cocktail (Perkin Elmer) was added to seal the top of the filter plate. The ^3H counts captured on the filter were read using a Perkin Elmer MicroBeta2 Reader.
The IC50 and Ki values of the compounds determined by the radioligand binding assay for EP4 receptor were calculated based on the inhibition rate of the different concentrations of the compounds.

[5] = male, Beagle, dog, plasma, canine, intravenous administration 1 mg/kg
[6] = male, Beagle, dog, plasma, canine, oral gavage administration 3 mg/kg

Sequence of human EP4 receptor (P35408 whole entry): as above

IC50 [1]: 2.2 nM
exposure after oral administration relative to the control compound ([2]; canines, oral administration): about 2 times
AUC(0-t) [2, 5]: 4370 ng·h/mL
clearance [2, 5]: 3.5 mL/min/kg
half-life [2, 5]: 9.73 h
Vd ([2]; male, Beagle, dog, plasma, canine, intravenous administration 1 mg/kg, read-out: Vz): 2.84 L/kg
AUC(0-t) [2, 6]: 10300 ng·h/mL
Cmax [2, 6]: 4820 ng/mL
Tmax [2, 6]: 0.25 h
half-life [2, 6]: 19.9 h
IC50 [4]: 5.3 nM
Ki [4]: 2.9 nM
SMILES: C[C@H](NC(=O)c1c(C(F)F)nn(C)c1Oc1cccc(C(C)(F)F)c1)c1ccc(C(=O)O)cc1 [Compound I-5, (S)-4-(1-(5-(3-(1,1-difluoroethyl)phenoxy)-3-(difluoromethyl)-1-methyl-1H-pyrazole-4-carboxamido)ethyl)benzoic Acid]
relative tumor inhibition rate TGI (%) [3]: 79%

Reference: patent US12643889B2, “Synthesis of novel EP4 antagonist and use in cancer and inflammation” (Wuhan Humanwell Innovative Drug Research And Development …, priority 2020, dated 2026)
